# Test results reported in ChEMBL document CHEMBL3431459, “Roche carnitine palmitoyltransferase modulator screening data (supplementary data associated with the publication CHEMBL2216752)”.
# Key:
# [1] = target: T1, Carnitine O-palmitoyltransferase 1, liver isoform (Homo sapiens, UniProt P50416); test: (§1) SUPPLEMENTARY: Inhibition of Carnitine palmitoyltransferase 1, liver isoform
# T1 sequence (P50416 whole entry): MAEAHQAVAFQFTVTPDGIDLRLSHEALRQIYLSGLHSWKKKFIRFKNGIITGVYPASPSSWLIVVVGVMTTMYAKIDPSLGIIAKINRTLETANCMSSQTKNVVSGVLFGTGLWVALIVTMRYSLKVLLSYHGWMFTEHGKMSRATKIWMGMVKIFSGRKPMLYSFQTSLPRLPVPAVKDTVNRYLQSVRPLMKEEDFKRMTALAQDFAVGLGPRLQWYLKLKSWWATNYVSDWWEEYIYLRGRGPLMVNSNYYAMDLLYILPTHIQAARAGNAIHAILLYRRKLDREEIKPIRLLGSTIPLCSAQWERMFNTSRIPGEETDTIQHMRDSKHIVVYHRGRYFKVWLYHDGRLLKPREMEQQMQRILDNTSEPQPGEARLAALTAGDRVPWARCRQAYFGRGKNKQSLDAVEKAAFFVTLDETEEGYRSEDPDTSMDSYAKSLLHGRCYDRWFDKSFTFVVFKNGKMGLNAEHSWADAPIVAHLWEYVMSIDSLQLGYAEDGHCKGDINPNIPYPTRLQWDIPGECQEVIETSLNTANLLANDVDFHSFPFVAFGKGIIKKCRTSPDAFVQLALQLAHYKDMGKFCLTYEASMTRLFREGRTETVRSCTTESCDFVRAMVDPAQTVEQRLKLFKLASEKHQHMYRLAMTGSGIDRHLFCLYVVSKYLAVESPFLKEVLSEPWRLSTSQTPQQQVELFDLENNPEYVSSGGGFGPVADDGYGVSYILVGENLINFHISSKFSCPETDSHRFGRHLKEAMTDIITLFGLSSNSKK
# [2] = target: T2, Carnitine O-palmitoyltransferase 1, liver isoform (Rattus norvegicus, UniProt P32198); test: as §1
# T2 sequence (P32198 whole entry): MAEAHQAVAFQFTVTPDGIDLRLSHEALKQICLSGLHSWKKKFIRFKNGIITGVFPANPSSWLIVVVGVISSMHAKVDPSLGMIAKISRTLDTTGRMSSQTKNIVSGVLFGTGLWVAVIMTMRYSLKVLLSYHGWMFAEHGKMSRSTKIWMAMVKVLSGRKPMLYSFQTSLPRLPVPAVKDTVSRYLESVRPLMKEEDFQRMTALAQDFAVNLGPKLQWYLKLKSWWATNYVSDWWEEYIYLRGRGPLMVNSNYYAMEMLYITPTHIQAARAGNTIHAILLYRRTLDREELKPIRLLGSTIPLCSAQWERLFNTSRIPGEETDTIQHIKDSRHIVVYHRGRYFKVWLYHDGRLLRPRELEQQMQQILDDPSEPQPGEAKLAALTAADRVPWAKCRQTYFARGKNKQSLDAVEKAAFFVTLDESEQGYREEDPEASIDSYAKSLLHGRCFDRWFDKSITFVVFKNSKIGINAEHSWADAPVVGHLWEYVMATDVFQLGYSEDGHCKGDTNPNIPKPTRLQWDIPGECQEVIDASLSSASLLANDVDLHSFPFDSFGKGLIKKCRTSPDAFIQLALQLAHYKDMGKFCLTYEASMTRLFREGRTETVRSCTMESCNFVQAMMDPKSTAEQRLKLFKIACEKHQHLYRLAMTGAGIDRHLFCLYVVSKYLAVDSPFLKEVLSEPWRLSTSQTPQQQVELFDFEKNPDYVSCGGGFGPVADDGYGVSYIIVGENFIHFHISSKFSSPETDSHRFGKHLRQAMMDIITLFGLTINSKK
# [3] = target: T3, Carnitine O-palmitoyltransferase 1, muscle isoform (Homo sapiens, UniProt Q92523); test: SUPPLEMENTARY: Inhibition of Carnitine palmitoyltransferase 1, muscle isoform; design: species or system Muscle tissue
# T3 sequence (Q92523 whole entry): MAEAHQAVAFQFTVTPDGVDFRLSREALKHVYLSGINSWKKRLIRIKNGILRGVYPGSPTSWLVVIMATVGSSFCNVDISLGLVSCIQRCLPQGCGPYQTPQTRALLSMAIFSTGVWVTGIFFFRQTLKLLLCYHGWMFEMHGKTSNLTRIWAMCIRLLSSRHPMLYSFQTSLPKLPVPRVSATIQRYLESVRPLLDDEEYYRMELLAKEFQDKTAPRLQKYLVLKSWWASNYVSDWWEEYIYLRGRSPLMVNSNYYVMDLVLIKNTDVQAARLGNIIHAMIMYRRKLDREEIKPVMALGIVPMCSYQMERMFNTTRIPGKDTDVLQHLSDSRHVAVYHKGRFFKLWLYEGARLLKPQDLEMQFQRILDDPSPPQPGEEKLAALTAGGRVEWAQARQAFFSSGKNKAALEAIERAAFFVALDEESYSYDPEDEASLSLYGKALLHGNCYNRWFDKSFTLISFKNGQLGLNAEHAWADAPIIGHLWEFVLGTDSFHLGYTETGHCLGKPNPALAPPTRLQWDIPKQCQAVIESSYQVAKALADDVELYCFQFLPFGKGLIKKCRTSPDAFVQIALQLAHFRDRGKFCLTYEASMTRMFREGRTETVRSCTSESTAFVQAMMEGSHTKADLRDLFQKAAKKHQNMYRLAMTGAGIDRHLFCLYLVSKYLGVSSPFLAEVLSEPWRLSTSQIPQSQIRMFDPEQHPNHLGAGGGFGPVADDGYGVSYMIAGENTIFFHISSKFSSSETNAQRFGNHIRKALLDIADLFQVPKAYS
# [4] = target: T4, Carnitine O-palmitoyltransferase 2, mitochondrial (Rattus norvegicus, UniProt P18886); test: (§2) SUPPLEMENTARY: Inhibition of Carnitine palmitoyltransferase 2
# T4 sequence (P18886 whole entry): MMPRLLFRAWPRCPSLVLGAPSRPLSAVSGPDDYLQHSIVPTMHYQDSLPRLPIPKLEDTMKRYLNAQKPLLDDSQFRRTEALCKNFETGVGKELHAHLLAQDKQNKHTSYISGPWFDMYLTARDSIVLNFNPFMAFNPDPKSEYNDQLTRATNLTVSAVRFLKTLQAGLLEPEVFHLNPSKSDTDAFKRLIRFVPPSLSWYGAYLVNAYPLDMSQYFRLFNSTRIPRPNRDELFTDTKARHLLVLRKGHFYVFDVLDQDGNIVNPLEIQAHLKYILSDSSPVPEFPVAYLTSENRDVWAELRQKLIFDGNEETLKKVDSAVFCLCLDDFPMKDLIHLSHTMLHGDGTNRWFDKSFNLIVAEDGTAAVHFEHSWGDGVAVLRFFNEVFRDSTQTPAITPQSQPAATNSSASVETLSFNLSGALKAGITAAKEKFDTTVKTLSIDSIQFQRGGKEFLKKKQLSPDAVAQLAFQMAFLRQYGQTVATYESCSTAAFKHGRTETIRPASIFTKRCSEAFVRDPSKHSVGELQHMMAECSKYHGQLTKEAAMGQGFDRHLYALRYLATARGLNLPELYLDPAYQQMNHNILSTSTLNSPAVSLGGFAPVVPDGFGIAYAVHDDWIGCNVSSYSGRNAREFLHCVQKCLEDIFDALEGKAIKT
# [5] = target: T5, Carnitine O-palmitoyltransferase 2, mitochondrial (Homo sapiens, UniProt P23786); test: as §2
# T5 sequence (P23786 whole entry): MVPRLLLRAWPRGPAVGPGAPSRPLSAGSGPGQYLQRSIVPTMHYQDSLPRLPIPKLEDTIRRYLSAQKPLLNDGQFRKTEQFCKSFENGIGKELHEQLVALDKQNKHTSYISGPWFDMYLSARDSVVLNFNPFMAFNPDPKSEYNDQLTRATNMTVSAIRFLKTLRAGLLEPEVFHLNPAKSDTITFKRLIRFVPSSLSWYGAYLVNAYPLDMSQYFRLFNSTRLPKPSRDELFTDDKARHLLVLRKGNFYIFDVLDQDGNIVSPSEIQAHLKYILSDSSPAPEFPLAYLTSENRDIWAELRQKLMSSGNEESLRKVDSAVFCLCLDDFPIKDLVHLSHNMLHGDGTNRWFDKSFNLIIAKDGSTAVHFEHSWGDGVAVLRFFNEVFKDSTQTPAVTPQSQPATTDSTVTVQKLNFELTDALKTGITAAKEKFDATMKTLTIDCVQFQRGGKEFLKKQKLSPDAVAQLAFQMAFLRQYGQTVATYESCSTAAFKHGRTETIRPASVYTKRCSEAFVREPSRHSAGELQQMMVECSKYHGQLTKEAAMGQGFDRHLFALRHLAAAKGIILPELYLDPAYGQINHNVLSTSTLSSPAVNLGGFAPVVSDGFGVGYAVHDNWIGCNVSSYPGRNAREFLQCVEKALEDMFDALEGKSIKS
# [6] = SUPPLEMENTARY: PAMPA permeability assay; assay type: physicochemical; details: read-out: Permeability
# [7] = SUPPLEMENTARY: Lipophilicity (log D) Determination by high-throughput shake-flask; assay type: physicochemical; details: octanol/water
# [8] = SUPPLEMENTARY: Lyophilisation Solubility Assay (LYSA); assay type: physicochemical; details: read-out: Kinetic_solubility
Structure (SMILES),IC50 [1] [µM],IC50 [2] [µM],IC50 [3] [µM],IC50 [4] [µM],IC50 [5] [µM],Papp [6] [×10⁻⁶ cm/s],logD [7],solubility kinetic [8] [µg/mL]
CC(=O)Nc1cc(F)cc(-c2noc([C@H]3CCCCN3C(=O)COc3ccccc3)n2)c1,0.123,0.131,> 100,> 100,> 100,1.35,3.62,< 1
NC(=O)c1cccc(-c2noc([C@H]3CCCCN3C(=O)COc3ccccc3)n2)c1,0.0408,0.156,72.3,45.7,16.7,2.55,2.57,42
CCN(CC)C(=O)c1nc([C@H]2CCCCN2C(=O)COc2ccccc2)no1,0.283,0.936,> 100,> 100,> 100,11.5,2.36,143
O=C(O)c1cncc(-c2noc([C@H]3CCCCN3C(=O)COc3ccccc3)n2)c1,0.226,4.51,> 100,> 100,96.3,0.07,-1.07,397
COc1ccc(Cl)cc1S(=O)(=O)n1ccc2ccc(C(=O)Nc3ccc(CC(=O)O)cc3)cc21,0.206,0.0828,2.21,> 100,> 100,1.98,1.1,61
Nc1ncc(Cl)c(-c2nc([C@H]3CCCCN3C(=O)COc3ccccc3)no2)n1,0.117,0.129,63.8,> 100,14.4,3.59,2.61,51
O=C(COc1ccccc1)N1CCCC[C@@H]1c1noc(-c2ccc3[nH]c(=O)c(=O)[nH]c3c2)n1,0.14,0.502,> 100,> 100,17,0.47,2.25,50
O=C(COc1ccccc1)N1CCCC[C@@H]1c1noc(-c2ccc3[nH]nnc3c2)n1,0.0794,0.916,> 100,> 100,> 100,2.14,2.22,46.5
